Experiments:
Assay type in all cases: in vivo
corn (Zea mays) [1] = assay: Test A1 preemergence, corn
Excerpt: (§1) Seeds of plant species selected from, blackgrass (Alopecurus myosuroides), corn (Zea mays), Foxtail, Giant (giant foxtail, Setaria faberi), goosegrass (Eleusine indica), kochia (Bassia scoparia), Oat, Wild (wild oat, Avena fatua), Pigweed, Palmer (palmer amaranth, palmer pigweed, Amaranthus palmeri), ragweed (common ragweed, Ambrosia artemisiifolia), Ryegrass, Italian (Italian ryegrass, Lolium multiflorum), soybean (Glycine max), and wheat (Triticum aestivum) were planted into a blend of loam soil and sand and treated preemergence with a directed soil spray using test chemicals formulated in a non-phytotoxic solvent mixture which included a surfactant. At the same time, plants selected from these crop and weed species and also galium (catchweed bedstraw, Galium aparine) and horseweed (Erigeron canadensis) were planted in pots containing the same blend of loam soil and sand and treated with postemergence applications of test chemicals formulated in the same manner. Plants ranged in height from 2 to 10 cm and were in the one- to two-leaf stage for the postemergence treatment. […] A dash (-) response means no test result.

kochia (Bassia scoparia) [2] = assay: Test A1 preemergence, kochia
Excerpt: as §1

[3] = test system: ragweed (common ragweed, Ambrosia artemisiifolia); assay: Test A1 postemergence, ragweed; conditions: Postemergence
Excerpt: as §1

soybean (Glycine max) [4] = assay: Test A1 preemergence, soybean
Excerpt: as §1

[5] = test system: wheat (Triticum aestivum); assay: Test A1 preemergence, wheat
Excerpt: as §1

[6] = test system: Oat, Wild (wild oat, Avena fatua); assay: Test A1 preemergence, Oat, Wild
Excerpt: as §1

rice (Oryza sativa) = assay: Test B1 flooded paddy test, rice; conditions: 250 g ai/ha, Flood, applied to paddy water, 2-leaf stage, visually evaluated after 10 to 14 days
Excerpt: (§2) A dash (-) response means no test result.

[7] = test system: Pigweed, Palmer (palmer amaranth, palmer pigweed, Amaranthus palmeri); assay: Test A1 preemergence, Pigweed, Palmer
Excerpt: as §1

[8] = test system: ragweed (common ragweed, Ambrosia artemisiifolia); assay: Test A1 preemergence, ragweed
Excerpt: as §1

[9] = test system: ducksalad (Heteranthera limosa); assay: Test B1 flooded paddy test, ducksalad; conditions: 250 g ai/ha, Flood, applied to paddy water, 2-leaf stage, visually evaluated after 10 to 14 days
Excerpt: as §2

[10] = test system: blackgrass (Alopecurus myosuroides); assay: Test A1 preemergence, blackgrass
Excerpt: as §1

[11] = test system: Pigweed, Palmer (palmer amaranth, palmer pigweed, Amaranthus palmeri); assay: Test A1 postemergence, Pigweed, Palmer; conditions: Postemergence
Excerpt: as §1

[12] = test system: Oat, Wild (wild oat, Avena fatua); assay: Test A1 postemergence, Oat, Wild; conditions: Postemergence
Excerpt: as §1

[13] = test system: Ryegrass, Italian (Italian ryegrass, Lolium multiflorum); assay: Test A1 postemergence, Ryegrass, Italian; conditions: Postemergence
Excerpt: as §1

[14] = test system: wheat (Triticum aestivum); assay: Test A1 postemergence, wheat; conditions: Postemergence
Excerpt: as §1

soybean (Glycine max) [15] = assay: Test A1 postemergence, soybean; conditions: Postemergence
Excerpt: as §1

[16] = test system: Ryegrass, Italian (Italian ryegrass, Lolium multiflorum); assay: Test A1 preemergence, Ryegrass, Italian
Excerpt: as §1

[17] = test system: galium (catchweed bedstraw, Galium aparine); assay: Test A1 postemergence, galium; conditions: Postemergence
Excerpt: as §1

[18] = test system: horseweed (Erigeron canadensis); assay: Test A1 postemergence, horseweed; conditions: Postemergence
Excerpt: as §1

[19] = test system: goosegrass (Eleusine indica); assay: Test A1 postemergence, goosegrass; conditions: Postemergence
Excerpt: as §1

kochia (Bassia scoparia) [20] = assay: Test A1 postemergence, kochia; conditions: Postemergence
Excerpt: as §1

[21] = test system: Foxtail, Giant (giant foxtail, Setaria faberi); assay: Test A1 postemergence, Foxtail, Giant; conditions: Postemergence
Excerpt: as §1

[22] = test system: barnyardgrass (Echinochloa crus-galli); assay: Test B1 flooded paddy test, barnyardgrass; conditions: 250 g ai/ha, Flood, applied to paddy water, 2-leaf stage, visually evaluated after 10 to 14 days
Excerpt: as §2

[23] = test system: goosegrass (Eleusine indica); assay: Test A1 preemergence, goosegrass
Excerpt: as §1

[24] = test system: Foxtail, Giant (giant foxtail, Setaria faberi); assay: Test A1 preemergence, Foxtail, Giant
Excerpt: as §1

corn (Zea mays) [25] = assay: Test A1 postemergence, corn; conditions: Postemergence
Excerpt: as §1

[26] = 31 g ai/ha, 0 to 100 scale (0 no effect, 100 complete control)
[27] = 125 g ai/ha, 0 to 100 scale, 0 no effect, 100 complete control
[28] = 31 g ai/ha, 0 to 100 scale (0 no effect, 100 complete control), 10 days

COc1cc(C)c(C2=NOC3(CCCC3)C2)cc1NS(=O)(=O)C(F)(F)F [Compound 304]
90: Plant response rating, Goosegrass [23, 27]
0: Plant response rating, Corn (corn (Zea mays) [1]; [26]) | Plant response rating, Corn (corn (Zea mays) [1]; [27]) | Plant response rating, Kochia (kochia (Bassia scoparia) [2]; [26]) | Plant response rating, Kochia (kochia (Bassia scoparia) [2]; [27]) | Plant response rating, Ragweed [3, 28] | Plant response rating, Soybean (soybean (Glycine max) [4]; [26]) | Plant response rating, Soybean (soybean (Glycine max) [4]; [27]) | Plant response rating, Wheat [5, 26] | Plant response rating, Oat, Wild [6, 27] | Plant response rating, Rice (0 to 100 scale, 0 is no effect, 100 is complete control) (rice (Oryza sativa)) | Plant response rating, Pigweed, Palmer [7, 26] | Plant response rating, Ragweed [8, 26] | Plant response rating, Ducksalad (0 to 100 scale, 0 is no effect, 100 is complete control) [9] | Plant response rating, Blackgrass [10, 26] | Plant response rating, Pigweed, Palmer [11, 28] | Plant response rating, Pigweed, Palmer ([11]; 125 g ai/ha, 0 to 100 scale) | Plant response rating, Oat, Wild [12, 28] | Plant response rating, Oat, Wild ([12]; 125 g ai/ha, 0 to 100 scale) | Plant response rating, Ryegrass, Italian [13, 28] | Plant response rating, Ryegrass, Italian ([13]; 125 g ai/ha, 0 to 100 scale) | Plant response rating, Wheat [14, 28] | Plant response rating, Galium [17, 28] | Plant response rating, Galium ([17]; 125 g ai/ha, 0 to 100 scale) | Plant response rating, Horseweed [18, 28] | Plant response rating, Horseweed ([18]; 125 g ai/ha, 0 to 100 scale) | Plant response rating, Goosegrass [19, 28] | Plant response rating, Goosegrass ([19]; 125 g ai/ha, 0 to 100 scale) | Plant response rating, Kochia (kochia (Bassia scoparia) [20]; [28]) | Plant response rating, Foxtail, Giant [21, 28] | Plant response rating, Barnyardgrass (0 to 100 scale, 0 is no effect, 100 is complete control) [22] | Plant response rating, Foxtail, Giant [24, 26] | Plant response rating, Corn (corn (Zea mays) [25]; [28])
80: Plant response rating, Foxtail, Giant [24, 27]
20: Plant response rating, Wheat [5, 27] | Plant response rating, Pigweed, Palmer [7, 27] | Plant response rating, Wheat ([14]; 125 g ai/ha, 0 to 100 scale) | Plant response rating, Soybean (soybean (Glycine max) [15]; [28]) | Plant response rating, Kochia (kochia (Bassia scoparia) [20]; 125 g ai/ha, 0 to 100 scale) | Plant response rating, Corn (corn (Zea mays) [25]; 125 g ai/ha, 0 to 100 scale)
30: Plant response rating, Ragweed ([3]; 125 g ai/ha, 0 to 100 scale) | Plant response rating, Goosegrass [23, 26]
40: Plant response rating, Blackgrass [10, 27] | Plant response rating, Ryegrass, Italian [16, 26]
50: Plant response rating, Oat, Wild [6, 26] | Plant response rating, Ragweed [8, 27] | Plant response rating, Soybean (soybean (Glycine max) [15]; 125 g ai/ha, 0 to 100 scale) | Plant response rating, Ryegrass, Italian [16, 27] | Plant response rating, Foxtail, Giant ([21]; 125 g ai/ha, 0 to 100 scale)

Cc1cc(F)c(NS(=O)(=O)C(F)(F)F)cc1C1=NOC2(CCCC2)C1 [Compound 303]
40: Plant response rating, Blackgrass [10, 27] | Plant response rating, Corn (corn (Zea mays) [25]; 125 g ai/ha, 0 to 100 scale)
0: Plant response rating, Corn (corn (Zea mays) [1]; [26]) | Plant response rating, Soybean (soybean (Glycine max) [4]; [26]) | Plant response rating, Soybean (soybean (Glycine max) [4]; [27]) | Plant response rating, Rice (0 to 100 scale, 0 is no effect, 100 is complete control) (rice (Oryza sativa)) | Plant response rating, Ragweed [8, 26] | Plant response rating, Ragweed [8, 27] | Plant response rating, Ducksalad (0 to 100 scale, 0 is no effect, 100 is complete control) [9] | Plant response rating, Blackgrass [10, 26] | Plant response rating, Pigweed, Palmer [11, 28] | Plant response rating, Oat, Wild [12, 28] | Plant response rating, Ryegrass, Italian [13, 28] | Plant response rating, Wheat [14, 28] | Plant response rating, Horseweed [18, 28] | Plant response rating, Goosegrass [19, 28] | Plant response rating, Kochia (kochia (Bassia scoparia) [20]; [28]) | Plant response rating, Barnyardgrass (0 to 100 scale, 0 is no effect, 100 is complete control) [22] | Plant response rating, Corn (corn (Zea mays) [25]; [28])
100: Plant response rating, Ryegrass, Italian [16, 27] | Plant response rating, Goosegrass [23, 27] | Plant response rating, Foxtail, Giant [24, 27]
50: Plant response rating, Wheat ([14]; 125 g ai/ha, 0 to 100 scale) | Plant response rating, Soybean (soybean (Glycine max) [15]; 125 g ai/ha, 0 to 100 scale) | Plant response rating, Ryegrass, Italian [16, 26] | Plant response rating, Goosegrass [23, 26]
60: Plant response rating, Oat, Wild [6, 27] | Plant response rating, Ryegrass, Italian ([13]; 125 g ai/ha, 0 to 100 scale) | Plant response rating, Galium [17, 28] | Plant response rating, Kochia (kochia (Bassia scoparia) [20]; 125 g ai/ha, 0 to 100 scale)
80: Plant response rating, Ragweed ([3]; 125 g ai/ha, 0 to 100 scale) | Plant response rating, Foxtail, Giant ([21]; 125 g ai/ha, 0 to 100 scale) | Plant response rating, Foxtail, Giant [24, 26]
70: Plant response rating, Horseweed ([18]; 125 g ai/ha, 0 to 100 scale) | Plant response rating, Goosegrass ([19]; 125 g ai/ha, 0 to 100 scale)
90: Plant response rating, Corn (corn (Zea mays) [1]; [27]) | Plant response rating, Wheat [5, 27] | Plant response rating, Galium ([17]; 125 g ai/ha, 0 to 100 scale)
20: Plant response rating, Kochia (kochia (Bassia scoparia) [2]; [26]) | Plant response rating, Kochia (kochia (Bassia scoparia) [2]; [27]) | Plant response rating, Oat, Wild [6, 26] | Plant response rating, Pigweed, Palmer [7, 26] | Plant response rating, Pigweed, Palmer [7, 27] | Plant response rating, Pigweed, Palmer ([11]; 125 g ai/ha, 0 to 100 scale) | Plant response rating, Oat, Wild ([12]; 125 g ai/ha, 0 to 100 scale)
30: Plant response rating, Ragweed [3, 28] | Plant response rating, Wheat [5, 26] | Plant response rating, Soybean (soybean (Glycine max) [15]; [28]) | Plant response rating, Foxtail, Giant [21, 28]
